The source of these data is US20230295234A1, “ANTIMICROBIAL PEPTIDOMIMETICS” (SPEXIS AG, priority 2020, published 2023).

Molecules are shown by their SMILES. Bridge positions count the residues as written; N and C are the ends. Square brackets hold non-standard residues; d marks the D form. Peptide text beside a SMILES is read from it. Pro(4R-NH2) = N[C@H]1CN[C@H](C(=O)O)C1; Gly(N-2-aminoethyl) = NCCNCC(=O)O; Hyp = O=C(O)[C@@H]1C[C@@H](O)CN1; Gly(N(CH2)3NH2) = NCCCNCC(=O)O; Pen = CC(C)(S)[C@H](N)C(=O)O; dDab = NCC[C@@H](N)C(=O)O; Dab = NCC[C@H](N)C(=O)O; Nlys = NCCCCNCC(=O)O

For data set [1], the system named is Escherichia coli MCR-1 Af 45. The note with it: MCR-1 Af 45. In short, it runs like this:
(§1)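 Peptides were made up as 1 mg/mL stocks in sterile water. Colonies in 0.85% saline were set to 0.5 McFarland, then diluted in cation-adjusted Mueller-Hinton II broth to about 5×10^5 CFU/mL. Inoculum was combined with two-fold serial peptide dilutions in water containing 0.002% (final) polysorbate 80.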

Data set [2] concerns Klebsiella pneumoniae SSI3010. Conditions: SSI3010. In short, it runs like this: as §1
Data set [3] has as its system Escherichia coli ATCC 25922. The note with it: ATCC 25922. In short, it runs like this: as §1
The test system of data set [4] is human red blood cells (hRBC). Briefly: Hemolysis of human red blood cells. In kind it is cell-based. The note with it: red cells of human, 1 h. In short, it runs like this:
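Percent hemolysis is OD540 of peptide-treated supernatant relative to water-lysed cells. Each peptide was tested at 200 μg/mL against 20% (v/v) washed human erythrocytes. Incubation was 1 h at 37 °C, 300 rpm.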

With `CC[C@H](C)[C@H](NC(=O)[C@@H]1C[C@@H](O)CN1C(=O)[C@@H](NC(=O)[C@@H]1C[C@@H](N)CN1C(=O)[C@@H](N)CCCCN)C(C)C)C(=O)N[C@H](C(=O)N[C@@H](Cc1ccc(O)cc1)C(=O)N[C@@H]1C(=O)N[C@@H](CC(N)=O)C(=O)N[C@@H](CCCNC(=N)N)C(=O)N[C@@H](CCN)C(=O)N[C@@H]([C@@H](C)O)C(=O)N[C@H](CCN)C(=O)N[C@@H](CCCCN)C(=O)N[C@H](C(=O)N[C@@H](CCN)C(=O)N[C@@H](CCCNC(=N)N)C(=O)N[C@@H](Cc2ccc(O)cc2)C(=O)O)CSSC1(C)C)[C@@H](C)O` [Example 50, Lys-Pro((4R)NH2)-Val-Hyp-Ile-Thr-Tyr-Pen-Asn-Arg-Dab-Thr-^DDab-Lys-Cys-Dab-Arg-Tyr] (HELM PEPTIDE1{K.[N[C@@H]1C[C@@H](C(=O)[*:2])N([*:1])C1].V.[Hyp].I.T.Y.[Pen].N.R.[Dab].T.[NCC[C@@H](N[*:1])C(=O)[*:2]].K.C.[Dab].R.Y}$PEPTIDE1,PEPTIDE1,8:R3-15:R3$$$V2.0), the “Escherichia coli MCR-1 Af 45 MIC” value in data set [1] came out at 0.0625 µg/mL. In addition, the “Klebsiella pneumoniae SSI3010 MIC” value in data set [2] worked out at 0.125 µg/mL. For the same molecule, the “Escherichia coli ATCC 25922 MIC” value in data set [3] was determined as 0.125 µg/mL. Moreover, the “Hemolysis at 0.2 g/L” value in data set [4] is recorded as 0%.

Regarding `CC[C@H](C)[C@H](NC(=O)[C@@H]1C[C@@H](O)CN1C(=O)[C@@H](NC(=O)CN(CCN)C(=O)[C@@H](N)CCCCN)C(C)C)C(=O)N[C@H](C(=O)N[C@@H](Cc1ccc(O)cc1)C(=O)N[C@@H]1C(=O)N[C@@H](CC(N)=O)C(=O)N[C@@H](CCCNC(=N)N)C(=O)N[C@@H](CCN)C(=O)N[C@@H]([C@@H](C)O)C(=O)N[C@H](CCN)C(=O)N[C@@H](CCCCN)C(=O)N[C@H](C(=O)N[C@@H](CCN)C(=O)N[C@@H](CCCNC(=N)N)C(=O)N[C@@H](Cc2ccc(O)cc2)C(=O)O)CSSC1(C)C)[C@@H](C)O` [Example 53, Lys-Ndab-Val-Hyp-Ile-Thr-Tyr-Pen-Asn-Arg-Dab-Thr-^DDab-Lys-Cys-Dab-Arg-Tyr] (HELM PEPTIDE1{K.[NCCN(CC(=O)[*:2])[*:1]].V.[Hyp].I.T.Y.[Pen].N.R.[Dab].T.[NCC[C@@H](N[*:1])C(=O)[*:2]].K.C.[Dab].R.Y}$PEPTIDE1,PEPTIDE1,8:R3-15:R3$$$V2.0), the “Escherichia coli MCR-1 Af 45 MIC” value in data set [1] is at most 0.03125 µg/mL. In data set [2], the “Klebsiella pneumoniae SSI3010 MIC” value turned out to be 0.0625 µg/mL. Also, in data set [3], the “Escherichia coli ATCC 25922 MIC” value turned out to be 0.0625 µg/mL. Further, the “Hemolysis at 0.2 g/L” value in data set [4] amounted to 0%.

Regarding `CC[C@H](C)[C@H](NC(=O)[C@@H]1C[C@@H](O)CN1C(=O)[C@@H](NC(=O)CN(CCN)C(=O)CNCCN)C(C)C)C(=O)N[C@H](C(=O)N[C@@H](Cc1ccc(O)cc1)C(=O)N[C@@H]1C(=O)N[C@@H](CC(N)=O)C(=O)N[C@@H](CCCNC(=N)N)C(=O)N[C@@H](CCN)C(=O)N[C@@H]([C@@H](C)O)C(=O)N[C@H](CCN)C(=O)N[C@@H](CCCCN)C(=O)N[C@H](C(=O)N[C@@H](CCN)C(=O)N[C@@H](CCCNC(=N)N)C(=O)N[C@@H](Cc2ccc(O)cc2)C(=O)O)CSSC1(C)C)[C@@H](C)O` [Example 54, Ndab-Ndab-Val-Hyp-Ile-Thr-Tyr-Pen-Asn-Arg-Dab-Thr-^DDab-Lys-Cys-Dab-Arg-Tyr] (H-[Gly(N-2-aminoethyl)][Gly(N-2-aminoethyl)]V[Hyp]ITY[Pen]NR[Dab]T[dDab]KC[Dab]RY-OH; disulfide 8-15), in data set [1], the “Escherichia coli MCR-1 Af 45 MIC” value came to 0.125 µg/mL. The “Klebsiella pneumoniae SSI3010 MIC” value in data set [2] turned out to be 0.25 µg/mL. For the same molecule, the “Escherichia coli ATCC 25922 MIC” value in data set [3] was 0.125 µg/mL. For the same molecule, the “Hemolysis at 0.2 g/L” value in data set [4] was found to be 0%.

Turning to `CC[C@H](C)[C@H](NC(=O)[C@@H]1C[C@@H](O)CN1C(=O)[C@@H](NC(=O)CN(CCN)C(=O)CNCCCN)C(C)C)C(=O)N[C@H](C(=O)N[C@@H](Cc1ccc(O)cc1)C(=O)N[C@@H]1C(=O)N[C@@H](CC(N)=O)C(=O)N[C@@H](CCCNC(=N)N)C(=O)N[C@@H](CCN)C(=O)N[C@@H]([C@@H](C)O)C(=O)N[C@H](CCN)C(=O)N[C@@H](CCCCN)C(=O)N[C@H](C(=O)N[C@@H](CCN)C(=O)N[C@@H](CCCNC(=N)N)C(=O)N[C@@H](Cc2ccc(O)cc2)C(=O)O)CSSC1(C)C)[C@@H](C)O` [Example 55, Norn-Ndab-Val-Hyp-Ile-Thr-Tyr-Pen-Asn-Arg-Dab-Thr-^DDab-Lys-Cys-Dab-Arg-Tyr] (H-[Gly(N(CH2)3NH2)][Gly(N-2-aminoethyl)]V[Hyp]ITY[Pen]NR[Dab]T[dDab]KC[Dab]RY-OH; disulfide 8-15), in data set [1], the “Escherichia coli MCR-1 Af 45 MIC” value is at most 0.03125 µg/mL. For the same molecule, the “Klebsiella pneumoniae SSI3010 MIC” value in data set [2] was 0.125 µg/mL. Also, the “Escherichia coli ATCC 25922 MIC” value in data set [3] is at most 0.03125 µg/mL. Also, the “Hemolysis at 0.2 g/L” value in data set [4] came out at 0%.

Take `CC[C@H](C)[C@H](NC(=O)[C@@H]1C[C@@H](O)CN1C(=O)[C@@H](NC(=O)CN(CCN)C(=O)CNCCCCN)C(C)C)C(=O)N[C@H](C(=O)N[C@@H](Cc1ccc(O)cc1)C(=O)N[C@@H]1C(=O)N[C@@H](CC(N)=O)C(=O)N[C@@H](CCCNC(=N)N)C(=O)N[C@@H](CCN)C(=O)N[C@@H]([C@@H](C)O)C(=O)N[C@H](CCN)C(=O)N[C@@H](CCCCN)C(=O)N[C@H](C(=O)N[C@@H](CCN)C(=O)N[C@@H](CCCNC(=N)N)C(=O)N[C@@H](Cc2ccc(O)cc2)C(=O)O)CSSC1(C)C)[C@@H](C)O` [Example 56, Nlys-Ndab-Val-Hyp-Ile-Thr-Tyr-Pen-Asn-Arg-Dab-Thr-^DDab-Lys-Cys-Dab-Arg-Tyr] (H-[Nlys][Gly(N-2-aminoethyl)]V[Hyp]ITY[Pen]NR[Dab]T[dDab]KC[Dab]RY-OH; disulfide 8-15): the “Escherichia coli MCR-1 Af 45 MIC” value in data set [1] stood at 0.0625 µg/mL. For the same molecule, the “Klebsiella pneumoniae SSI3010 MIC” value in data set [2] came to 0.125 µg/mL. The “Escherichia coli ATCC 25922 MIC” value in data set [3] turned out to be 0.0625 µg/mL. Also, the “Hemolysis at 0.2 g/L” value in data set [4] worked out at 0%.

As to `CC[C@H](C)[C@H](NC(=O)[C@@H]1C[C@@H](N)CN1C(=O)[C@@H](NC(=O)[C@@H]1C[C@@H](O)CN1C(=O)[C@@H](N)CCCCN)C(C)C)C(=O)N[C@H](C(=O)N[C@@H](Cc1ccc(O)cc1)C(=O)N[C@@H]1C(=O)N[C@@H](CC(N)=O)C(=O)N[C@@H](CCCNC(=N)N)C(=O)N[C@@H](CCN)C(=O)N[C@@H]([C@@H](C)O)C(=O)N[C@H](CCN)C(=O)N[C@@H](CCCCN)C(=O)N[C@H](C(=O)N[C@@H](Cc2ccc(O)cc2)C(=O)N[C@@H](CCCNC(=N)N)C(=O)N[C@@H](Cc2ccc(O)cc2)C(=O)O)CSSC1(C)C)[C@@H](C)O` [Example 57, Lys-Hyp-Val-Pro((4R)NH2)-Ile-Thr-Tyr-Pen-Asn-Arg-Dab-Thr-^DDab-Lys-Cys-Tyr-Arg-Tyr] (HELM PEPTIDE1{K.[Hyp].V.[N[C@@H]1C[C@@H](C(=O)[*:2])N([*:1])C1].I.T.Y.[Pen].N.R.[Dab].T.[NCC[C@@H](N[*:1])C(=O)[*:2]].K.C.Y.R.Y}$PEPTIDE1,PEPTIDE1,8:R3-15:R3$$$V2.0), in data set [1], the “Escherichia coli MCR-1 Af 45 MIC” value worked out at 0.125 µg/mL. Besides, the “Klebsiella pneumoniae SSI3010 MIC” value in data set [2] stood at 0.25 µg/mL. The “Escherichia coli ATCC 25922 MIC” value in data set [3] came out at 0.25 µg/mL. Also, the “Hemolysis at 0.2 g/L” value in data set [4] is listed as 0%.

Turning to `CC[C@H](C)[C@H](NC(=O)[C@@H]1C[C@@H](N)CN1C(=O)[C@@H](NC(=O)[C@@H]1C[C@@H](O)CN1C(=O)CNCCCN)C(C)C)C(=O)N[C@H](C(=O)N[C@@H](Cc1ccc(O)cc1)C(=O)N[C@@H]1C(=O)N[C@@H](CC(N)=O)C(=O)N[C@@H](CCCNC(=N)N)C(=O)N[C@@H](CCN)C(=O)N[C@@H]([C@@H](C)O)C(=O)N[C@H](CCN)C(=O)N[C@@H](CCCCN)C(=O)N[C@H](C(=O)N[C@@H](Cc2ccc(O)cc2)C(=O)N[C@@H](CCCNC(=N)N)C(=O)N[C@@H](Cc2ccc(O)cc2)C(=O)O)CSSC1(C)C)[C@@H](C)O` [Example 58, Norn-Hyp-Val-Pro((4R)NH2)-Ile-Thr-Tyr-Pen-Asn-Arg-Dab-Thr-^DDab-Lys-Cys-Tyr-Arg-Tyr] (H-[Gly(N(CH2)3NH2)][Hyp]V[Pro(4R-NH2)]ITY[Pen]NR[Dab]T[dDab]KCYRY-OH; disulfide 8-15), in data set [1], the “Escherichia coli MCR-1 Af 45 MIC” value stood at 0.125 µg/mL. In addition, the “Klebsiella pneumoniae SSI3010 MIC” value in data set [2] stood at 0.25 µg/mL. In addition, the “Escherichia coli ATCC 25922 MIC” value in data set [3] is 0.25 µg/mL. Also, the “Hemolysis at 0.2 g/L” value in data set [4] was found to be 0%.

As for `CC[C@H](C)[C@H](NC(=O)[C@@H]1C[C@@H](O)CN1C(=O)[C@@H](NC(=O)[C@@H]1C[C@@H](N)CN1C(=O)CNCCCCN)C(C)C)C(=O)N[C@H](C(=O)N[C@@H](Cc1ccc(O)cc1)C(=O)N[C@@H]1C(=O)N[C@@H](CC(N)=O)C(=O)N[C@@H](CCCNC(=N)N)C(=O)N[C@@H](CCN)C(=O)N[C@@H]([C@@H](C)O)C(=O)N[C@H](CCN)C(=O)N[C@@H](CCCCN)C(=O)N[C@H](C(=O)N[C@@H](Cc2ccc(O)cc2)C(=O)N[C@@H](CCCNC(=N)N)C(=O)N[C@@H](Cc2ccc(O)cc2)C(=O)O)CSSC1(C)C)[C@@H](C)O` [Example 59, Nlys-Pro((4R)NH2)-Val-Hyp-Ile-Thr-Tyr-Pen-Asn-Arg-Dab-Thr-^DDab-Lys-Cys-Tyr-Arg-Tyr] (H-[Nlys][Pro(4R-NH2)]V[Hyp]ITY[Pen]NR[Dab]T[dDab]KCYRY-OH; disulfide 8-15; N-terminus and C-terminus assumed), the “Escherichia coli MCR-1 Af 45 MIC” value in data set [1] came to 0.125 µg/mL. In addition, the “Klebsiella pneumoniae SSI3010 MIC” value in data set [2] was 0.25 µg/mL. Also, in data set [3], the “Escherichia coli ATCC 25922 MIC” value is 0.25 µg/mL. Further, in data set [4], the “Hemolysis at 0.2 g/L” value is on record as 0%.
